Where two headings read alike, the source gives them in different places.
Experiments:
[1] = Tablet performance in fed and fasted dogs; format: in vivo, dog; conditions: 50 mg tablet QD, fed vs fasted
Experimental: For 6 days, dogs received a single 50 mg tablet QD after pre-treatment with pentagastrin. Little accumulation was observed over the course of the study. In addition, exposure in chow-fed dogs was similar to that obtained for solution formulations administered at a similar dose. To reduce the pill burden, a 100 mg tablet was developed and when tested in dogs, similar exposure was observed when dogs were dosing with a 50 mg tablet.

[2] = Plasma protein binding, monkey; format: in vitro ADME; conditions: read-out: free fraction
[3] = 28-day GLP oral toxicity study in dogs; format: in vivo; conditions: dog
From the text: There were no mortalities and no Compound A-related clinical observations, changes in BW or food consumption or ophthalmic observations. There were no ARV-471-related ECG abnormalities observed, including no effects on PR-interval, QRS duration, QT or QTc intervals, or heart rate and no arrhythmias or abnormal waveforms.

ER = target: T1, ER (Rattus norvegicus, UniProt P06211); assay: Uterine wet weight in juvenile rats (ER agonist activity); format: in vivo
T1 construct: uterine wet weight in juvenile rats; from tissue; host or cells: uterus of juvenile rats, in vivo
T1 sequence (P06211 whole entry): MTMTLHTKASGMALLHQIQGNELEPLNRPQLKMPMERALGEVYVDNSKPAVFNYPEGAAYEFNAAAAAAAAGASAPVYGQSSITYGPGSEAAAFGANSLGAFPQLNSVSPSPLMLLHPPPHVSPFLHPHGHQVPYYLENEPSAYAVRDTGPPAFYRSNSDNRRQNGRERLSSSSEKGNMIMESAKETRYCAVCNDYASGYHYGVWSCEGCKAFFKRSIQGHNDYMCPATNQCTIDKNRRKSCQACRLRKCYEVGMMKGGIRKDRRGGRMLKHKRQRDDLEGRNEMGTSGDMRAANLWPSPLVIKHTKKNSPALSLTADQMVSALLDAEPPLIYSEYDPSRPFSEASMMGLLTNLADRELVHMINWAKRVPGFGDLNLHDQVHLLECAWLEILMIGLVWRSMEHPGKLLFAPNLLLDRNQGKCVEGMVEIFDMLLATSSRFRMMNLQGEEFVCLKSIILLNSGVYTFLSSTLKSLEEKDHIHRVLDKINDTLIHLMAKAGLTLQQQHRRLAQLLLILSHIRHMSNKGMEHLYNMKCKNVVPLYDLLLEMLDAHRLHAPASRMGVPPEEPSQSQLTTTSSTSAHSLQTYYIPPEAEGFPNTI

[4] = Interconversion (epimerization) Compound A/Compound B in animals; format: in vivo, mouse, rat, dog, and monkey; conditions: monkey
[5] = Tissue distribution in rat; format: in vivo; conditions: for Kp at 3 days: 100 mg/kg/day PO 3 days
[6] = system: ER+/HER2− locally advanced/metastatic breast cancer; assay: FIH Study Part B (VERITAC): clinical benefit rate, PFS; format: in vivo, human
From the text: The primary endpoint was clinical benefit rate (CBR; rate of confirmed complete or partial response or stable disease ≥24 weeks).

Which “increase in AUC in fed dogs” value [1] does the source give for `O=C1CC[C@H](N2Cc3cc(N4CCN(CC5CCN(c6ccc([C@@H]7c8ccc(O)cc8CC[C@@H]7c7ccccc7)cc6)CC5)CC4)ccc3C2=O)C(=O)N1` [Compound A, (S)-3-(5-(4-((1-(4-((1R,2S)-6-hydroxy-2-phenyl-1,2,3,4-tetrahydronaphthalen-1-yl)phenyl)piperidin-4-yl)methyl)piperazin-1-yl)-1-oxoisoindolin-2-yl)piperidine-2,6-dione] here?
Its value is 3 fold.

What about the fraction unbound at 1 μM [2] of the same compound?
Its fraction unbound at 1 μM is 0.04.

And the ECG evaluations ([3]; 28 days, up to 90 mg/kg/day)?
Its ECG evaluations is “did not elicit any changes in ECG evaluations”.

What about the NOAEL at 28 days ([3]; in vivo, 28 days oral) of the same compound?
Its NOAEL at 28 days is 90 mg/kg/day.

What about the uterine wet weight (ER) of the same compound?
The uterine wet weight was “did not increase uterine wet weight”.

What about the extent of epimerization [4] of the same compound?
The extent of epimerization was “negligible”.

And the “tissue accumulation upon repeat-dose” value [5]?
Its value is “no signs of tissue accumulation”.

And the Kp at 3 days ([5]; brain, read-out: tissue plasma ratio, brain)?
The Kp at 3 days was at most 0.1.

What about the “blood brain barrier crossing” value ([5]; in vivo) of the same compound?
Its value is “does not readily cross the blood brain barrier”.

And the Kp at 3 days ([5]; lung, read-out: tissue plasma ratio, lung)?
The Kp at 3 days was 5.6 to 13.9.

What about the CBR ([6]; 200 mg QD, WT PIK3CA n=20, 95% CI 19-64) of the same compound?
The CBR was 40.0%.

And the CBR ([6]; 200 mg QD, all evaluable n=35, Nov. 1, 2022, 95% CI 21-55)?
The CBR was 37.1%.

What about the CBR ([6]; 200 mg QD, mutant ESR1 n=19, Nov. 1, 2022, 95% CI 24-71) of the same compound?
Its CBR is 47.4%.

And the CBR ([6]; 200 mg QD, mutant PIK3CA n=15, 95% CI 12-62)?
The CBR was 33.3%.

And the CBR ([6]; ITT (n=71))?
Its CBR is 38%.

And the CBR ([6]; ITT ESR1m (n=41))?
Its CBR is 51.2%.

And the PFS ([6]; ITT ESR1m (n=41))?
The PFS was 5.7 months.

And the CBR ([6]; no prior fulvestrant or chemotherapy in metastatic setting (n=8))?
Its CBR is 62.5%.

And the CBR ([6]; patients with WT ESR1 (n=25))?
Its CBR is 20%.

Reference: patent US20260069588A1, “VEPDEGESTRANT FOR USE IN TREATING CANCER” (Arvinas Operation, Inc., priority 2022, published 2026)
